From patent US20240228558A9, “PEPTIDES AND METHODS FOR THE TREATMENT OF NEUROMYELITIS OPTICA” (IMCYSE SA, priority 2021, published 2024)

Tests used:
[1] = test system: autologous LCL (lymphoblastoid cell lines) used as antigen presenting cells; test: Cytolytic activity: apoptosis of peptide-loaded autologous LCL co-cultured with peptide specific CD4+ T cells (Annexin V); assay type: cell-based, human
Source text: (§1) PBMCs are isolated from blood samples of patients with NMO on Lymphoprep density gradients. CD14+ monocytes are isolated from these PBMCs by performing positive immunomagnetic separation with CD14 microbeads (Miltenyi Biotec, 130-050-201) according to the supplier recommendations. CD14+ monocytes are differentiated for six days and maturated to generate autologous dendritic cells (mDC). CD19+ B cells are isolated from the CD14− PBMCs fraction by performing positive immunomagnetic separation with CD19 microbeads (Miltenyi Biotec, 130-050-301) according to the supplier recommendations. CD19+B cells are cultured and immortalized with EBV to generate autologous lymphoblastoid cell lines (LCL). Naïve CD4+ T cells are also purified from the CD14− PBMCs fraction by performing negative immunomagnetic separation with naïve CD4+ T cell isolation kit (Miltenyi Biotec, 130-094-131) according to the supplier recommendations. Naïve CD4+ T cells are co-cultured with autologous mDC or LCL in the presence of the peptides of table 1. The CD4+ T cells are re-stimulated periodically, about every 10-12 days, to generate peptide-specific cell lines.
The cytolytic activity of the peptide specific CD4+ T cells is evaluated by quantifying the apoptosis induced on LCL used as antigen presenting cells. Fluorescently labelled autologous LCL, loaded or not with the peptides, were overnight co-cultured at resting state with peptide specific CD4+ T cells, and LCL apoptosis was quantified by flow cytometry through Annexin V staining. Considering the apoptosis percentage of unloaded LCL, used as control, the percentage of specific apoptosis is calculated as follows: […]

[2] = test system: peptide-specific CD4+ T cell lines of NMO patients; test: Cytokine secretion in CD4+ T cell culture supernatants (LEGENDplex Human Th Panel); assay type: cell-based
Source text: as §1
The ability of the peptides of table 1 to induce cytokines secretion in CD4+ T cells culture supernatants is evaluated by flow cytometry analysis after overnight co-culture at resting state with autologous mDC or LCL without (no peptide) or with the peptides of table 1. Supernatants are analyzed with the LEGENDplex Human Th Panel (13-plex) (BioLegend, 740721) according to the supplier recommendations.

[3] = test system: peptide-specific CD4+ T cell lines of NMO patients; test: Lytic marker Granzyme B in supernatant of overnight co-culture with autologous LCL; assay type: cell-based, human
Source text: as §1
(§2) LCL without (no peptide) or with the peptides of table 1. The expression of the lytic marker Granzyme B is also evaluated by flow cytometry analysis in the supernatant of overnight co-culture with autologous LCL without (no peptide) or with the peptides of table 1. Supernatants are analyzed with a BioLegend kit according to the supplier recommendations.

[4] = test system: peptide-specific CD4+ T cell lines of NMO patients; test: Flow cytometry of TCR induced surface activation marker CD154 after overnight co-culture with autologous LCL; assay type: cell-based, human
Source text: as §1
The evaluation of the ability of the peptides of table 1 to generate peptide specific CD4+ T cells is evaluated by flow cytometry analysis of the TCR induced surface activation marker CD154 expression after overnight co-culture at resting state with autologous
as §2

[5] = target: T1, soluble HLA-DRB1*03:01 (DR3) human MHC II protein (Homo sapiens, UniProt P01903+P01911, A100K/A102G/A103R/A169T/F55Y/I96L/K41T/L162R/M171V/P40S/Q125H/Q178H/Q39Y/R42S/S66N/T106N/T262R/W38E/Y61H); test: Soluble phase competition binding assay to MHCII with biotin-labelled control peptide; details: competition with biotin-labelled high affinity control peptide, 18h, triplicates (FIGS. 2A-2E)
T1 construct: purchased Benaroya Research Institute, Seattle, US
Method: To test the binding of the immunogenic peptides of table 1 to MHCII molecules, a soluble phase competition assay is performed. The increasing concentrations of the peptides compete with biotin-labelled control peptide (high affinity binder of the corresponding MHCII molecule, Eurogentec, Seraing, Belgium) for binding to the soluble HLA-DRB1*03:01 (also named DR3) human MHC II protein (purchased from the Benaroya Research Institute, Seattle, US). As binding approaches its equilibrium (18h), biotin-labelled peptide/MHC II complexes are captured, separated from unbound reagents, and quantitatively detected by time-resolved fluorescence (Eu^3+ streptavidin, Perkin Elmer, Brussels, Belgium). Since the biotinylated control peptide is responsible for the fluorescence signal (Eu^3+ streptavidin/biotin interaction), the decrease in fluorescence intensity reflects the binding of tested peptides. Data are processed and plotted to ascertain dose-dependent binding properties of the peptides. All the tests are performed in triplicates.

[6] = Oxidoreductase activity of the immunogenic peptides, fluorescent assay (Tomazzolli et al.); assay type: biochemical; details: for time at which oxidoreductase activity reached a plateau: FIG. 1A; for oxidoreductase activity: reduction of self-quenched FITC peptides, mean of duplicates, read in RFU (FIGS. 1A-1E)
Source text: The peptides of the invention comprise an MHC class II T-cell epitope or NKT cell epitope of AQP4 with a potential to trigger an immune reaction, and a modified oxidoreductase motif. The reducing activity of the motif sequence in the peptide can be assayed for its ability to reduce a sulfhydryl group such as in the insulin solubility assay wherein the solubility of insulin is altered upon reduction, or with a fluorescence-labelled substrate such as insulin. An example of such assay uses a fluorescent peptide and is described in Tomazzolli et al. (2006) Anal. Biochem. 350, 105-112. Two peptides with a FITC label become self-quenching when they covalently attached to each other via a disulfide bridge. Upon reduction by a peptide in accordance with the present invention, the reduced individual peptides become fluorescent again.
The oxidoreductase activity of the immunogenic peptides of table 1 was determined using a fluorescent assay described in Tomazzolli et al. (2006) Anal. Biochem. 350, 105-112. Two peptides with a FITC label become self-quenching when they form a covalent disulfide bond. Upon reduction by a peptide in accordance with the present invention, the reduced individual FITC labelled peptides emit fluorescence again. The activity is expressed as the mean of duplicates. The results are expressed in Relative Fluorescent Units (RFU).

[7] = culture supernatant of P20-CD4+ cell line from patient NMO-006 (FIG. 5)
[8] = P20-specific CD4+ T cell lines NMO-001, NMO-003, NMO-006 (FIGS. 8 and 9)
[9] = P20-specific CD4+ T cell line, patient NMO-001, after 14 stimulations (FIG. 6)
[10] = P12-specific CD4+ T cell line, patient NMO-001 (FIG. 13)
[11] = P12-specific CD4+ T cell line NMO-001 (FIG. 14)

Sequence: AGGLYEYVFCPDVEFKRRFK [short C-WT T-cell epitope, reference compound]
- cross-reactivity (LCL apoptosis) ([1]; CD4+ T cells of patient NMO-001 after 16 stimulations with P20 (FIG. 7)): lower
- specific secretion of cytokines (IL-5 and IL-13) [2, 7]: specific secretion of cytokines (IL-5 and IL-13) induced
- effector cells expressing the lytic marker Granzyme B [3, 8]: specific increase of effector cells expressing the lytic marker Granzyme B

Sequence: AGGLYEYVFSPDVEFKRRFK [short-S-WT epitope, reference compound]
- reactivation of P20-specific CD4+ T cells (CD154+) ([4]; P20-specific CD4+ T cells of NMO-001 patient (FIG. 4)): could also be reactivated
- percentage of specific LCL apoptosis [1, 9]: increase in the percentage of specific LCL apoptosis
- effector cells expressing the lytic marker Granzyme B [3, 8]: specific increase of effector cells expressing the lytic marker Granzyme B

Sequence: HCPYCAVTVAMVCTRKISIAKK [P6]
- binding to HLA-DRB1*03:01 [5]: less affinity than P12 and P20

Sequence: HCPYCEYVFSPDVEFKRRFK [P20]
- frequency of effector cells (CD3+CD4+CD154+) ([4]; P20-specific CD4+ T cell lines of NMO patients -001 and -003 after multiple stimulations (FIG. 3)): high frequency of effector cells
- percentage of specific LCL apoptosis [1, 9]: increase in the percentage of specific LCL apoptosis
- apoptosis of loaded LCL ([1]; P20-specific CD4+ T cell line, patient NMO-003, after 14 stimulations (FIG. 6)): Apoptosis of LCL loaded with P20 was also observed
- LCL apoptosis ([1]; co-culture with CD4+ T cells of patient NMO-001 after 16 stimulations with P20 (FIG. 7)): 50%
- specific secretion of cytokines (IL-5 and IL-13) [2, 7]: specific secretion of cytokines (IL-5 and IL-13) induced
- effector cells expressing the lytic marker Granzyme B [3, 8]: specific increase of effector cells expressing the lytic marker Granzyme B
- time at which oxidoreductase activity reached a plateau [6]: 5 min
- binding to HLA-DRB1*03:01 [5]: bind to HLA-DRB1*03:01 with similar affinity

Sequence: HCPYCRENIMVAFKGVWTQAK [P1]
- binding to HLA-DRB1*03:01 [5]: less affinity than P12 and P20

Sequence: HCPYCRSQVETDDLILKPGVK [P22]
- oxidoreductase activity [6]: displayed oxidoreductase activity, although to a lesser extend

Sequence: HCPYCTRKISIAKSVFYIAAKKK [P12]
- frequency of effector cells (CD3+CD4+CD154+) ([4]; P12-specific CD4+ T cell lines of NMO patients -001 and -003 after multiple stimulations (FIG. 10)): high frequency of effector cells
- percentage of specific LCL apoptosis [1, 10]: increase in the percentage of specific LCL apoptosis
- specific secretion of cytokines (IL-5 and IL-13) ([2]; culture supernatant of P12-specific CD4+ cell lines (FIG. 12, NMO-003)): specific secretion of cytokines (IL-5 and IL-13) induced
- effector cells expressing the lytic marker Granzyme B [3, 11]: specific increase of effector cells expressing the lytic marker Granzyme B
- time at which oxidoreductase activity reached a plateau [6]: 5 min
- binding to HLA-DRB1*03:01 [5]: bind to HLA-DRB1*03:01 with similar affinity

Sequence: HCPYCTVAMVSTRKISIAK [P3]
- binding to HLA-DRB1*03:01 [5]: less affinity than P12 and P20

Sequence: HCPYCVETIFASSDSKRTDVK (HCPYCVFTIFASSDSKRTDVK) [P15]
- oxidoreductase activity [6]: displayed oxidoreductase activity, although to a lesser extend
- binding to HLA-DRB1*03:01 [5]: less affinity than P12 and P20

Sequence: KHCPYCVFTIFASCDSKRTDVK [P18]
- binding to HLA-DRB1*03:01 [5]: less affinity than P12 and P20

Sequence: KVAMVCTRKISIAKSVFYIAAKK [short-WT epitope, reference compound]
- reactivation of P12-specific CD4+ T cells (CD154+) ([4]; P12-specific CD4+ T cells of NMO-001 patient (FIG. 11)): could also be reactivated
- percentage of specific LCL apoptosis [1, 10]: increase in the percentage of specific LCL apoptosis
- effector cells expressing the lytic marker Granzyme B [3, 11]: specific increase of effector cells expressing the lytic marker Granzyme B
